In US11337984B2, “Methods for treating, diagnosing and prognosing a haematological malignancy” (Institut de Recerca Contra La Leucèmia Josep Carreras, priority 2014, dated 2022):
“Also recorded” adds a separate entry of the source.

Columns and labels:
[1] = test system: HL-60, KG-1, MonoMac-1 and Kasumi-1 AML cell lines; test: Differentiation-associated surface markers on AML cell lines by flow cytometry; format: cell-based, human; details: 0.1, 1 and 10 μM, 72 h; all AML cell lines
Protocol: FIG. 5. […] The surface expression of CD11c, CD11b and CD14 was detected by flow cytometry. […] MFI: Mean Fluorescence Intensity.
HL-60, KG-1, MonoMac-1 and Kasumi-1 AML cell lines were treated with Apomorphine and Methiothepin at different concentrations for 72 h as described above. The expression of differentiation-associated surface markers was measured by flow cytometry.

[2] = test system: HL-60, KG-1, MonoMac-1 and Kasumi-1 AML cell lines; test: Cell viability of AML cell lines by flow cytometry (7-AAD/Hoechst, volumetric count); format: cell-based, human
Protocol: FIG. 1. […] 10^6 HL-60, KG-1, MonoMac-1 and Kasumi-1 cells per mL in complete RPMI media were treated with 0.1, 1 and 10 μM Apomorphine for 72 h. […] Cells were stained with 7-aminoactinomycin D (7-AAD, CAS no. 7240-37-1) and Hoechst 33342 (CAS no. 23491-52-3) and analyzed by flow cytometry. […] Cell number was calculated by volumetric count. A. The mean (symbol) for each AML cell line and standard deviation (error bars) from 6 different biological replicates are represented. B. The average corresponding to the four different AML cell lines is represented. *p<0.05.
FIG. 2. […] Cell number was calculated by volumetric count. A. The mean (symbol) for each AML cell line and standard deviation (error bars) from 6 different biological replicates are represented. B. AML cell lines were treated with 10 μM Apomorphine or Methiothepin in the presence or absence of 5-CT or 5-HT. *p<0.05. Apo: apomorphine; Methio: methiothepine.
In order to test the anti-leukaemic effect of 5HTR antagonists, HL-60 (Collins, Gallo et al. Nature. 1977; 270(5635):347-9), MonoMac-1 (Steube, Teepe et al. Leuk Res. 1997; 21(4):327-35), KG-1 (Koeffler and Golde. Science. 1978; 200(4346):1153-4) and Kasumi-1 (Asou, Tashiro et al. Blood. 1991; 77(9):2031-6) AML (Acute Myeloid Leukaemia) cell lines were treated with the broad 5HTR antagonist Apomorphine (CAS no. 314-19-2) at different doses for 72 h. One million cells per mL were seeded in complete RPMI media supplemented with 10% fetal bovine serum in a 96-well plate. The concentration used for the Apomorphine treatment was 0.1, 1 and 10 μM.
The human 5HTR family is composed by 7 subtypes (from 1 to 7) of receptors […]. HL-60, KG-1, MonoMac-1 and Kasumi-1 AML cell lines were incubated with subtype-specific 5HTR antagonists: Apomorphine (type 1, 2 and 5), Methiothepin (type 1 and 2) (CAS no. 74611-28-2), Amperozide (type 2) (CAS no. 75558-90-6), GR113808 (type 4) (CAS no. 144625-51-4). 72 h after treatment, cell viability was determined by flow cytometry. Cells were stained with 7-AAD (CAS no. 7240-37-1) and Hoechst 33342 (CAS no. 23491-52-3). Viability cells were identified by 7-AAD staining exclusion and the presence of Hoechst positive stain. Cell counts were measured by volume. […] In fact, the anti-leukaemic effect was reversed in the presence of a competitive agonist such as the natural ligand 5-HT (CAS no. 153-98-0) or 5-CT (CAS no. 74885-72-6).

[3] = test system: primary AML blasts; test: Cell viability of primary patient AML samples (bulk and CD34+CD38- primitive population); format: cell-based, human; details: 0.1, 1 and 10 μM, 24 and 72 h
Protocol: FIG. 3. […] The primitive AML population was identified within the AML bulk population based on their positivity to CD34 and negativity to CD38. […] Cell number was calculated by volumetric count. 11 primary AML samples were analyzed in triplicates. Each symbol represents a specific AML patient.
FIG. 4. […] The primitive AML population was identified within the AML bulk population based on their positivity to CD34 and negativity to CD38. […] Cell number was calculated by volumetric count. 11 primary AML samples were analyzed in triplicates. Each symbol represents a specific AML patient.
Primary AML patient samples were treated with subtype 1 and 2 HTR antagonists for 24 and 72 h at 0.1, 1 and 10 μM. Five hundred thousand cells per mL were seeded in IMDM supplemented with insulin, transferrin, bovine serum albumin, IL3 and non-essential aminoacids. Cell viability was measured by flow cytometry as described above.
Like the normal haematopoietic system, AML is thought to be organized as a hierarchy of distinct and functionally heterogeneous classes of cells that is ultimately sustained by a small number of leukaemic stem cells (LSCs) with enhanced self-renewal capacity, impaired differentiation ability, and increase drug resistance (Bonnet and Dick Nat Med. 1997; 3(7):730-7). The LSC population is found enriched inside the CD34+CD38− AML blast population.

[4] = test system: healthy hematopoietic stem cells; test: Secondary transplants of engrafted healthy cells in NSG mice; format: in vivo, mouse
Protocol: (§1) FIG. 17. Treatments with 5HTR antagonists reduce the leukemia regeneration capacity of primary AML samples in secondary recipient, without affecting normal hematopoiesis. Upper panel. 3-10×10^5 engrafted bone marrow cells from primary transplanted mice were injected intravenously into secondary recipients (conditioned NSG mice) and left untreated for 8 weeks. Bone marrow cells were analyzed as in FIG. 16. Frequency of human CD45 positive cells referred to control is represented. Lower panel. 50×10^3 engrafted human cells were screened for CFUs. The normalized number of CFUs obtained is represented. *p<0.05; ***p<0.005; ****p<0.0001.
(§2) In order to assay the in vivo self-renewal capacity remaining in the engrafted samples, secondary transplants were performed. Less than 35% of AML cells were detected in mice injected with apomorphine- or methiothepin-treated cells (FIG. 17).

[5] = test system: AML cells; test: CFU assay of engrafted AML samples; format: cell-based; details: engrafted human cells from primary transplanted mice
Protocol: as §1, §2

## CN1CCc2cccc3c2[C@H]1Cc1ccc(O)c(O)c1-3 [Apomorphine, (6aR)-6-methyl-5,6,6a,7-tetrahydro-4H-dibenzo[de,g]quinoline-10,11-diol]
[1]
  expression of differentiation-associated surface markers CD11c, CD11b and CD14: induced the expression of CD11c, CD11b and CD14
[2]; 10 μM antagonist with 5-CT or 5-HT
  anti-leukaemic effect in the presence of a competitive agonist (5-HT or 5-CT): reversed
[2]; 0.1, 1 and 10 μM, 72 h, HL-60, KG-1, MonoMac-1, Kasumi-1
  cell viability of AML cell lines: a reduction in cell viability was detected in a dose-response fashion; also recorded: reduced AML cell viability
[2]; subtype-specific 5HTR antagonists, 0.1, 1 and 10 μM, 72 h
  cell death on AML cell lines: induced cell death
[3]; bulk population
  cell death on primary AML blasts: induced cell death on primary AML blasts in a dose-response fashion
[3]; CD34+CD38- population
  cell viability of the most primitive LSC-enriched blast population: reduced cell viability
[4]
  self-renewal and differentiation capacity of healthy hematopoietic stem cells in secondary transplants: retained their self-renewal and differentiation capacity
[5]
  clonogenic capacity of engrafted AML samples (CFU assays): significantly reduced
